In ChEMBL document CHEMBL1128680, “6-substituted 2,4-diamino-5-methylpyrido[2,3-d]pyrimidines as inhibitors of dihydrofolate reductases from Pneumocystis carinii and Toxoplasma gondii and as antitumor agents” (J Med Chem, 1995):

What was measured:
[1] = system: Toxoplasma gondii; assay: Inhibitory activity against cultured Toxoplasma gondii; format: functional, organism-based
[2] = system: MDA-MB-435; assay: Cytotoxic activity against MDA-MB-435 Breast cancer cell line; format: functional; settings: Homo sapiens
[3] = system: K562; assay: Cytotoxic activity against K-562 Leukemia cell line; format: functional; settings: Homo sapiens
[4] = molecular target: T1, Dihydrofolate reductase (Pneumocystis carinii, UniProt P16184)
T1 sequence (P16184 whole entry): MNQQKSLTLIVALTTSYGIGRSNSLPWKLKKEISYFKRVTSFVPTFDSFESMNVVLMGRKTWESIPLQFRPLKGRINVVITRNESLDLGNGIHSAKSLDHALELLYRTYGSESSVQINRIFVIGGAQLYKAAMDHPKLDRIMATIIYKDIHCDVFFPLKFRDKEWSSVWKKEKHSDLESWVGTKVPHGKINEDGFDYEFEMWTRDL
Description: Inhibitory activity against Dihydrofolate reductase from Pneumocystis carinii

[5] = (§1) Cytotoxic activity against IGROV1 Ovarian cancer cell line; format: functional; settings: Homo sapiens, IGROV-1
[6] = system: CCRF-CEM; assay: Cytotoxic activity against CCRF-CEM Leukemia cell line; format: functional; settings: Homo sapiens
[7] = system: A549; assay: Cytotoxic activity against A549/ATCC non-small cell-lung cancer cell line; format: functional; settings: Homo sapiens
[8] = system: MDA-MB-231; assay: Cytotoxic activity against MDA-MB-231/ATCC Breast cancer cell line; format: functional; settings: Homo sapiens
[9] = system: MOLT-4; assay: Cytotoxic activity against MOLT-4 Leukemia cell line; format: functional; settings: Homo sapiens
[10] = system: UACC-257; assay: Cytotoxic activity against UACC-257 Melanoma cell line; format: functional; settings: Homo sapiens
[11] = system: U-251; assay: Cytotoxic activity against U251 CNS cancer cell line; format: functional; settings: Homo sapiens
[12] = system: SR; assay: Cytotoxic activity against SR Leukemia cell line; format: functional; settings: Homo sapiens
[13] = system: HCT-116; assay: Cytotoxic activity against HCT116 colon cancer cell line; format: functional; settings: Homo sapiens
[14] = system: MDA-N; assay: Cytotoxic activity against MDA-N Breast cancer cell line; format: functional; settings: Homo sapiens
[15] = system: SF-295; assay: Cytotoxic activity against SF-295 CNS cancer cell line; format: functional; settings: Homo sapiens
[16] = system: PC-3; assay: Cytotoxic activity against PC-3 Prostate cancer cell line; format: functional; settings: Homo sapiens
[17] = system: UACC-62; assay: Cytotoxic activity against UACC-62 Melanoma cell line; format: functional; settings: Homo sapiens
[18] = system: SW-620; assay: Cytotoxic activity against SW-620 colon cancer cell line; format: functional; settings: Homo sapiens
[19] = system: 786-0; assay: Cytotoxic activity against 786-0 Renal cancer cell line; format: functional; settings: Homo sapiens
[20] = molecular target: T2, Dihydrofolate reductase (Rattus norvegicus, UniProt Q920D2)
T2 sequence (Q920D2 whole entry): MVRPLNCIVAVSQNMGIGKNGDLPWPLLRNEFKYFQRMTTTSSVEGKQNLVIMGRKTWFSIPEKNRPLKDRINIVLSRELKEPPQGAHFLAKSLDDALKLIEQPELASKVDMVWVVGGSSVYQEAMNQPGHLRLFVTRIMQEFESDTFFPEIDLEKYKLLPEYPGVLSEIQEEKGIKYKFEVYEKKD
Description: Inhibitory activity against Dihydrofolate reductase from rat liver

[21] = system: DU-145; assay: Cytotoxic activity against DU-145 Prostate cancer cell line; format: functional; settings: Homo sapiens
[22] = system: HT-29; assay: Cytotoxic activity against HT-29 colon cancer cell line; format: functional; settings: Homo sapiens
[23] = system: NCI-H460; assay: Cytotoxic activity against NCI-H460 non-small cell-lung cancer cell line; format: functional; settings: Homo sapiens
[24] = system: HCT-15; assay: Cytotoxic activity against HCT-15 colon cancer cell line; format: functional; settings: Homo sapiens
[25] = system: LOX IMVI; assay: Cytotoxic activity against LOXIMVI Melanoma cell line; format: functional; settings: Homo sapiens
[26] = system: SF-268; assay: Cytotoxic activity against SF-268 CNS canser cell line; format: functional; settings: Homo sapiens
[27] = Ratio of the inhibitory concentrations against Toxoplasma gondii […] and Toxoplasma gondii DHFR.
[28] = system: SK-MEL-5; assay: Cytotoxic activity against SK-MEL-5 Melanoma cell line; format: functional; settings: Homo sapiens
[29] = system: NCI-H322M; assay: Cytotoxic activity against NCI-H322M non-small cell-lung cancer cell line; format: functional; settings: Homo sapiens
[30] = molecular target: T3, Bifunctional dihydrofolate reductase-thymidylate synthase (Toxoplasma gondii, UniProt Q07422)
T3 sequence (Q07422 whole entry): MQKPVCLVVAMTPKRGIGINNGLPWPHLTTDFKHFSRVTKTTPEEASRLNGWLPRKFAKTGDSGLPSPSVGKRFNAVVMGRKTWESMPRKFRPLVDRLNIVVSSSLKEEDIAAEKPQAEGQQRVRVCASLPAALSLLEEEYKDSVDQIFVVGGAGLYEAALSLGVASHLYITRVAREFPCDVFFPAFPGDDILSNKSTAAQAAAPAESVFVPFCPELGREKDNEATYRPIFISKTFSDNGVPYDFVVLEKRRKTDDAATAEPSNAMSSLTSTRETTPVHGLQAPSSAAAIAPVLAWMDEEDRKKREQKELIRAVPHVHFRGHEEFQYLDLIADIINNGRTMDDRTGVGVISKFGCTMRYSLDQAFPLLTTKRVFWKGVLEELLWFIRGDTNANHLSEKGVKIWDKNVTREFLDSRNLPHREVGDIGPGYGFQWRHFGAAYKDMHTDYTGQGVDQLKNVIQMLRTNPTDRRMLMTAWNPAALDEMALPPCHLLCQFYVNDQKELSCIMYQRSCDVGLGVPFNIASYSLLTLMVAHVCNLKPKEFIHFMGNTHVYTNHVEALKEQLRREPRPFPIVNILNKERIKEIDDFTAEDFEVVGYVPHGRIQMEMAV
Description: Inhibitory activity against Dihydrofolate reductase from Toxoplasma gondii

[31] = system: ACHN; assay: Cytotoxic activity against ACHN Renal cancer cell line; format: functional; settings: Homo sapiens
[32] = system: IGROV-1; assay: as §1; format: functional; settings: Homo sapiens
[33] = molecular target: Dihydrofolate reductase (Lactobacillus casei, UniProt P00381)
Description: Inhibitory activity against Dihydrofolate reductase from Lactobacillus casei

[34] = system: MDA-N; assay: Cytotoxic activity against MDA-N breast cancer cell line; format: functional; settings: Homo sapiens

Dihydrofolate reductase (Lactobacillus casei, UniProt P00381), sequence (P00381 whole entry): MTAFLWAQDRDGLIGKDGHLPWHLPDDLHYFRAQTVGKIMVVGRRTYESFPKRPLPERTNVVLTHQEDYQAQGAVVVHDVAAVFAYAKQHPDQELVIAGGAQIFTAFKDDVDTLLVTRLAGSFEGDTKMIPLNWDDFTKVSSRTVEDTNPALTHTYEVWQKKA

SMILES | IC50 [1] [nM] | GI50 [2] [nM] | GI50 [3] [nM] | IC50 [4] [nM] | GI50 [6] [nM] | GI50 [7] [nM] | GI50 [8] [nM] | GI50 [9] [nM] | GI50 [10] [nM] | GI50 [11] [nM] | GI50 [12] [nM] | GI50 [13] [nM] | GI50 [15] [nM] | GI50 [16] [nM] | GI50 [17] [nM] | GI50 [19] [nM] | IC50 [20] [nM] | GI50 [21] [nM] | GI50 [22] [nM] | IC50 [30] [nM] | also measured
COc1ccc(NCc2cnc3nc(N)nc(N)c3c2C)c2ccccc12 | 40 | 62.1 | 16.1 | 41 | 76.6 | 38.4 | 18.8 | 91.1 | 86.8 | 72.9 | 76 | 11.7 | 83.2 | 79.8 | 43.2 | 55 | 54 | 52.1 | 72.3 | 23 | GI50 [5]: 86.8 nM; GI50 [14]: 42.5 nM; GI50 [18]: 79.6 nM; GI50 [23]: 49.1 nM; GI50 [24]: 45.6 nM; GI50 [25]: 69.4 nM; GI50 [26]: 60.4 nM; Ratio [27]: 2; GI50 [28]: 57.8 nM; GI50 [29]: 85 nM; GI50 [31]: 47.9 nM
COc1ccc(OC)c(N(C)Cc2cnc3nc(N)nc(N)c3c2C)c1 | 1050 | 4180 | 499 | 216 | 7150 | 732 | 764 | 3160 | 20000 | 4210 | 7450 | 3970 | 3410 | 783 | 1150 | 843 | 407 | 2710 | 3220 | 30.1 | GI50 [32]: 5450 nM; GI50 [14]: 6620 nM; GI50 [18]: 5040 nM; GI50 [24]: 2540 nM; GI50 [25]: 5820 nM; GI50 [26]: 5910 nM; Ratio [27]: 35; GI50 [28]: 1560 nM; GI50 [29]: 5560 nM; GI50 [31]: 3750 nM
COc1ccc(NCc2cnc3nc(N)nc(N)c3c2C)cc1OC |  |  |  | 44 |  |  |  |  |  |  |  |  |  |  |  |  | 7.6 |  |  | 8.8 | IC50 [33]: 83 nM
COc1cc(NCc2ccc3nc(N)nc(N)c3c2C)cc(OC)c1OC [TRIMETREXATE] |  |  |  |  |  |  |  |  |  |  |  |  |  |  |  |  |  |  |  |  | IC50 [33]: 27 nM
COc1cc(N(Cc2cnc3nc(N)nc(N)c3c2C)C(C)C)cc(OC)c1OC |  |  |  | 13.4 |  |  |  |  |  |  |  |  |  |  |  |  | 17.5 |  |  | 6.7 | IC50 [33]: 210 nM
C#CCN(Cc1cnc2nc(N)nc(N)c2c1C)c1cc(OC)c(OC)c(OC)c1 |  |  |  | 53.5 |  |  |  |  |  |  |  |  |  |  |  |  | 11.8 |  |  | 7.7 | 
CCOc1ccc(OCC)c(NCc2cnc3nc(N)nc(N)c3c2C)c1 | 320 |  |  | 76.7 |  |  |  |  |  |  |  |  |  |  |  |  | 17.4 |  |  | 17 | Ratio [27]: 19
COc1ccc(NCc2cnc3nc(N)nc(N)c3c2C)c(OC)c1 |  | 3530 | 305 | 316 | 4290 | 635 | 1910 | 1220 | 100000 | 5810 | 3530 | 173 | 1610 | 852 | 126000 | 588 | 214 | 2830 | 2380 | 56.5 | GI50 [32]: 6270 nM; GI50 [23]: 481 nM; GI50 [24]: 2200 nM; GI50 [25]: 3350 nM; GI50 [26]: 4170 nM; GI50 [34]: 359 nM; GI50 [28]: 1150 nM; GI50 [29]: 50600 nM; GI50 [31]: 2890 nM
CCOc1ccc(OCC)c(N(C)Cc2cnc3nc(N)nc(N)c3c2C)c1 |  |  |  | 3100 |  |  |  |  |  |  |  |  |  |  |  |  | 3000 |  |  | 100 | 
